# Assay results as given in patent US20240308999A1 (priority 2021, published 2024).
# Legend:
# DAT / SERT [1] = conditions: 1/IC50 at DAT divided by 1/IC50 at SERT; uptake inhibition; cited from earlier work
# DAT / SERT [2] = conditions: neurotransmitter release; cited from earlier work
# neuritogenesis = conditions: Ly et al. 2018, Figure S3, cited from earlier work
# [3] = after 75 or 125 mg MDMA; standard deviation of 1.3 hours; cited from earlier work
# human DAT = target: T1, human DAT (Homo sapiens, UniProt Q01959); test: hDAT release assay ([3H]dopamine release); assay type: cell-based
# T1 construct: expressed in transfected cells; host or cells: Chinese hamster ovary (CHO) cells
# T1 sequence (Q01959 whole entry): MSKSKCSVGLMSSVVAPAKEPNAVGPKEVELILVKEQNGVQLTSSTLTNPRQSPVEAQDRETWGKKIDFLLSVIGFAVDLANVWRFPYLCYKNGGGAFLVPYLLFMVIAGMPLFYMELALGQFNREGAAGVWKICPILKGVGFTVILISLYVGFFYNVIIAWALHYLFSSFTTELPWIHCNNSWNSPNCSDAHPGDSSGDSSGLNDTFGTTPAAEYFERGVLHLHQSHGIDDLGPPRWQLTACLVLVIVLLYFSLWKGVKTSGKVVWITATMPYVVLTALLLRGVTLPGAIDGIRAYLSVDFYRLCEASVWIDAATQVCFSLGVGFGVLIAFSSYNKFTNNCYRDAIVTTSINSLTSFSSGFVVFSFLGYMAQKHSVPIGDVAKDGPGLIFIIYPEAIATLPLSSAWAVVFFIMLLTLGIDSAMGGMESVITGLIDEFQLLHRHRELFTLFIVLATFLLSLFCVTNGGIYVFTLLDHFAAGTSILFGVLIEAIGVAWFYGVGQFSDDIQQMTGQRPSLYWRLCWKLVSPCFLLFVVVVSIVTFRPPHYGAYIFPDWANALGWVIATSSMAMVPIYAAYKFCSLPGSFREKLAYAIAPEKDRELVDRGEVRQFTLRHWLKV
# Dopamine transporter = Dopamine transporter (Homo sapiens, UniProt Q01959); test: DAT monoamine transporter uptake assay (Blocker)
# Chain of Dopamine transporter (Q01959 whole entry): as above
# [4] = target: 5-Hydroxytryptamine (Serotonin) Receptor 2B (Homo sapiens, UniProt P41595); test: 5-HTR2B activity assay (Agonist/Antagonist); assay type: cell-based
# Chain of 5-Hydroxytryptamine (Serotonin) Receptor 2B (P41595 whole entry): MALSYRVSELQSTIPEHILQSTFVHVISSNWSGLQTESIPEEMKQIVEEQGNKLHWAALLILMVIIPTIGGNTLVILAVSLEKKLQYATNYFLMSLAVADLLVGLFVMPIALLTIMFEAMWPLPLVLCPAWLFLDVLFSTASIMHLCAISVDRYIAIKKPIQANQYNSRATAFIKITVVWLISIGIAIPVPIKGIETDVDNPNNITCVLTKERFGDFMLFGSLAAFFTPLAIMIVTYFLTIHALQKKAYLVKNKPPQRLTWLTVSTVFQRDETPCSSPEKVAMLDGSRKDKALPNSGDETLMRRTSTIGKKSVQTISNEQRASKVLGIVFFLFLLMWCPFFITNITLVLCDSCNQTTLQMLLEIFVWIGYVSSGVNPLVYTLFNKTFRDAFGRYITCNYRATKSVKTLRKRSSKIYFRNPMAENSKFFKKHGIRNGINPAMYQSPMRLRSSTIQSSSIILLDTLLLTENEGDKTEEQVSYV
# [5] = target: Norepinephrine transporter (Homo sapiens, UniProt P23975); test: NET monoamine transporter uptake assay (Blocker)
# Chain of Norepinephrine transporter (P23975 whole entry): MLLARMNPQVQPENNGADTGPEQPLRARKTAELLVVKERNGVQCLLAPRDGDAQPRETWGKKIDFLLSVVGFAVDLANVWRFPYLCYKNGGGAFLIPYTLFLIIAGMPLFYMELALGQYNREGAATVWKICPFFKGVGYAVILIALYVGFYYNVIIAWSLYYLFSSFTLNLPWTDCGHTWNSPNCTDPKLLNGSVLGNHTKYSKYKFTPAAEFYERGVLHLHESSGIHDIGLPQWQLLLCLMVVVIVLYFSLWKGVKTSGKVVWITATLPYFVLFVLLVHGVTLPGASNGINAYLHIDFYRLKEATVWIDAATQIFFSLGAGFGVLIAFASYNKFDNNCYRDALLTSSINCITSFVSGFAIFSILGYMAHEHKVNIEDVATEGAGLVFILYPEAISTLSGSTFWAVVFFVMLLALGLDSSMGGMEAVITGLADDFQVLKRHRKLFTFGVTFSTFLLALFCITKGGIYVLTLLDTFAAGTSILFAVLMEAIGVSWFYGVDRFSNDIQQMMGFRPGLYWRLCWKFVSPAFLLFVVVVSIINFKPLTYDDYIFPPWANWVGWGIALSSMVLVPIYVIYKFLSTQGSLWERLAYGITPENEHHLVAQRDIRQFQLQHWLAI
# human SERT = target: T2, human SERT (Homo sapiens, UniProt P31645); test: hSERT release assay ([3H]serotonin release); assay type: cell-based
# T2 construct: expressed in transfected cells; host or cells: Chinese hamster ovary (CHO) cells
# T2 sequence (P31645 whole entry): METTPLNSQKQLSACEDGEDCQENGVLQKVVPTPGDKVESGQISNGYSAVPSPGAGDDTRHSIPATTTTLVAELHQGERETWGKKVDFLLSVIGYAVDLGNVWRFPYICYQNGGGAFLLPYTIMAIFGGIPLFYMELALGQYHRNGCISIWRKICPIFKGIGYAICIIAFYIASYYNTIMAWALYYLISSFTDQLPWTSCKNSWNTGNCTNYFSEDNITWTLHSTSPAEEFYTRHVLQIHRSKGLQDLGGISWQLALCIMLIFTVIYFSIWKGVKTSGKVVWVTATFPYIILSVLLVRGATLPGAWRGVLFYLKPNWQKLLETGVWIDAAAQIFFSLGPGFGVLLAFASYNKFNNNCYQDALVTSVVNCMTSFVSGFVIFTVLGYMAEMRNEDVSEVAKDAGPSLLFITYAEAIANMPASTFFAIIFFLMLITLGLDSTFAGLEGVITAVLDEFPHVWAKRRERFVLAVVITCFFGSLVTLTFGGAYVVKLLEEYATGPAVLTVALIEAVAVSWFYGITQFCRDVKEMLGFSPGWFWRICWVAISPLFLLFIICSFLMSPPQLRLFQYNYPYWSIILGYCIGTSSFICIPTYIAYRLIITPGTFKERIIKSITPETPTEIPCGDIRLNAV
# [6] = target: 5-Hydroxytryptamine (Serotonin) Receptor 1B (Homo sapiens, UniProt P28222); test: 5-HTR1B activity assay (Agonist/Antagonist); assay type: cell-based
# Chain of 5-Hydroxytryptamine (Serotonin) Receptor 1B (P28222 whole entry): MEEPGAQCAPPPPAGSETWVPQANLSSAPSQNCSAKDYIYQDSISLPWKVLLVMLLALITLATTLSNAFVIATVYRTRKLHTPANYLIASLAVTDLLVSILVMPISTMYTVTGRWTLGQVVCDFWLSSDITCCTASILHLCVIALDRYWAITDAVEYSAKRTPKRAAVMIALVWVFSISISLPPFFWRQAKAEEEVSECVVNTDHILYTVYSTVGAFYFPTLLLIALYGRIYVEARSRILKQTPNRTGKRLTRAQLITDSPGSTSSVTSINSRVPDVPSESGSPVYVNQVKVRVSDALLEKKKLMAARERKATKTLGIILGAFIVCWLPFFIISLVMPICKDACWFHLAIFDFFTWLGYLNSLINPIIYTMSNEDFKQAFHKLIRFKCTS
# DAT / NET = conditions: neurotransmitter release; cited from earlier work
# [7] = target: Nicotinic acetylcholine Receptor α4 β2 (Homo sapiens, UniProt P17787+P43681); assay type: cell-based; conditions: nACHR(a4/b2), Blocker mode; positive control; read-out: RC50 (Result Type IC50)
# Chain of Nicotinic acetylcholine Receptor α4 β2 (P43681 29-627 limits assumed): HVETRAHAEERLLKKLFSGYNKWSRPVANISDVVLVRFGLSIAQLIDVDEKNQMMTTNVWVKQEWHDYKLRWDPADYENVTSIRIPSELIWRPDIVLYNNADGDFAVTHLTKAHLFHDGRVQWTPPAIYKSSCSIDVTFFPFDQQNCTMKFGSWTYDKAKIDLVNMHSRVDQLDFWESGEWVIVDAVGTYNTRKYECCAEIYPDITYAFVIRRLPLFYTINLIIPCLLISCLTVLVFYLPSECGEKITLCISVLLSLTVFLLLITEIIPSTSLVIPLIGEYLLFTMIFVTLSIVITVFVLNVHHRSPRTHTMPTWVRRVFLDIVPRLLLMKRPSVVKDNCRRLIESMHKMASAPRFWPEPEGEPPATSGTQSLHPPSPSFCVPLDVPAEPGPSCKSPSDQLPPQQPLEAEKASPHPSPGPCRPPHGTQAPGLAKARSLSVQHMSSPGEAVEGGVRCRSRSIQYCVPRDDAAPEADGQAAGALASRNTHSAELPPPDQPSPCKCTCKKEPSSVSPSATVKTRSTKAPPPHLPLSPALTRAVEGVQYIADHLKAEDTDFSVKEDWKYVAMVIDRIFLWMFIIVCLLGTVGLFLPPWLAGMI
# Chain of Nicotinic acetylcholine Receptor α4 β2 (P17787 26-502): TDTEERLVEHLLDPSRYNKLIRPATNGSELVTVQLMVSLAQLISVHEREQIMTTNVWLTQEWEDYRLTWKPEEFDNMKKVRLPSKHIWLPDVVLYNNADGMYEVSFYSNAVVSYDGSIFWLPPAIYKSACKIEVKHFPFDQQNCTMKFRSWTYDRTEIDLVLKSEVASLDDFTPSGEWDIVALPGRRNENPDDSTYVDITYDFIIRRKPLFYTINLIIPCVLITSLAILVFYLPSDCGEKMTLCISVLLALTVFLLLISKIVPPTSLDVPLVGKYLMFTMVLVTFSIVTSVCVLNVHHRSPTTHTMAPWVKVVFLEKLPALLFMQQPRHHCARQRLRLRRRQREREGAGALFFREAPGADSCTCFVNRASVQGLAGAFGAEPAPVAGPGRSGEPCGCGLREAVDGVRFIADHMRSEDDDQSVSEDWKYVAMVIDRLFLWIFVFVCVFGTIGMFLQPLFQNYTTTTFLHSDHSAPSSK
# [8] = target: Gamma-aminobutyric acid Receptor A; assay type: cell-based; conditions: GABAA, Blocker mode; positive control; read-out: RC50 (Result Type IC50)
compound,measurement,setting,value
"CCNC(C)Cc1ccc2c(c1)OCO2 (stereo not drawn) [MDEA, [1-(2H-1,3-benzodioxol-5-yl)propan-2-yl](ethyl)amine]",DAT/SERT IC50 ratio,DAT / SERT [1],3.2
same,DAT/SERT EC50 ratio,DAT / SERT [2],0.76
CNC(C)Cc1ccc2c(c1)OCO2 (stereo not drawn) [MDMA],DAT/SERT IC50 ratio,DAT / SERT [1],0.08
same,Emax for promoting neuritogenesis relative to ketamine,neuritogenesis,approximately twice that of ketamine
same,EC50,neuritogenesis; read-out: EC50 for promoting neuritogenesis,0.00741 µM
same,Duration of acute therapeutic effects,[3],4.2 h
CNC(C)C(=O)c1ccc2ccccn12 (stereo not drawn) [Structure XLX],EC50,human DAT,0.227 µM
same,DAT/SERT ratio*,"human DAT; calculated as (DAT EC50)^−1/(SERT EC50)^−1, larger numbers indicate higher DAT selectivity",2.1
same,"Relative potency of release, DAT versus 5-HT",human DAT; hMAT release assays,more potent at releasing DAT than 5-HT
same,IC50,Dopamine transporter,2.41 µM
same,IC50,[4],2.14 µM
same,IC50,[5],5.69 µM
same,EC50,human SERT,0.109 µM
same,EC50,[6],1.13 µM
"C[C@H](N)Cc1ccccc1 [d-amphetamine, D-amphetamine]",DAT/NET EC50 ratio,DAT / NET,0.9
CN[C@@H](C)Cc1ccccc1 [d-methamphetamine],DAT/NET EC50 ratio,DAT / NET,0.5
Dihydro-AY-erythroidine,IC50,[7],0.682 µM
Picrotoxin,IC50,[8],2.78 µM
